Experimental data taken from patent US20040171659A1, “Methods for treating diabetes” (priority 2002, published 2004).

What was measured:
p38 MAPK = molecular target: T1, p38 MAPK (Homo sapiens, UniProt Q16539); assay: phosphorylation assay of p38 MAPK activity (see Kumar); format: biochemical; conditions: assay similar to the phosphorylation assay (Kumar); read-out: p38 MAPK activity, relative IC50 value
T1 construct: made in house; host or cells: cells (e.g., HeLa) transfected with kinase DNA, stimulated, kinase immunoprecipitated from lysate
T1 sequence (Q16539 whole entry): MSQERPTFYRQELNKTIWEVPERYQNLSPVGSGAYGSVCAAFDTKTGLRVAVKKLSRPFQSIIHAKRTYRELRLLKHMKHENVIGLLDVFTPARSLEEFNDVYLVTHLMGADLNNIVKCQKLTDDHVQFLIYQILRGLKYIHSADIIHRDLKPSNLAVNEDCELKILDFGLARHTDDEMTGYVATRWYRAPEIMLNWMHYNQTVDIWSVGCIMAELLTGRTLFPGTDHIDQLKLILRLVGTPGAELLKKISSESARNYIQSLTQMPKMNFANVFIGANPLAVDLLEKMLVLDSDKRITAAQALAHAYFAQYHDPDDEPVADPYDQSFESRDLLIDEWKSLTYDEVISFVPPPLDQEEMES
Method: After immunoprecipitation of cell lysates, equal aliquots of immune complexes of the kinases are pre-incubated for an adequate time with a specific concentration of the potential inhibitor followed by addition of kinase substrate buffer mix containing labeled ATP and GST-ATF2 or MBP. […] Phosphorylated substrate is resolved through SDS-PAGE and visualized and quantitated in a phosphorimager. […] Res. Commun.

rat insulinoma cells = conditions: cited from earlier work
monocyte migration = conditions: Chen 2001; cited from earlier work

SMILES	IC50 (p38 MAPK) [nM]	p38-dependent enhancement of cytokines expression by hsp70 (rat insulinoma cells)	Monocyte migration (monocyte migration)
COc1cc2c(cc1C(=O)N1CC(C)N(Cc3ccc(F)cc3)CC1C)c(C(=O)C(=O)N(C)C)cn2C (stereo not drawn) [compound 15]	< 5		
C[S+]([O-])c1ccc(-c2nc(-c3ccncc3)c(-c3ccc(F)cc3)[nH]2)cc1 (stereo not drawn) [SB203580]		blocks this activity	blockade
